Values quoted from earlier work as cited in patent publication US8030014B2, “Detecting agent and therapeutic agent for highly malignant breast cancer” (priority 2005, dated 2011).

Test system: breast cancer
Conditions: paclitaxel used in addition to adriamycin plus cyclophosphamide (AC); postoperative auxiliary chemotherapy

## CC(=O)O[C@H]1C(=O)[C@@]2(C)[C@H]([C@H](OC(=O)c3ccccc3)[C@]3(O)C[C@H](OC(=O)[C@H](O)[C@@H](NC(=O)c4ccccc4)c4ccccc4)C(C)=C1C3(C)C)[C@]1(OC(C)=O)CO[C@@H]1C[C@@H]2O [paclitaxel]
  lowering of annual mortality rate over AC therapy alone: 26%
